Reference: US7981838B2, “Defoliant” (Bayer CropScience AG, priority 2007, dated 2011)

Tested on: Cotton plants of the cultivar "Linda"
Assay: Leaf drop (defoliation) test on cotton plants in climatized chamber, spray application
Assay type: in vivo
Details: 300 l/ha water
Description: A water application rate of 300 l/ha was initially charged. The components herbicide and adjuvant were then added with stirring at the application rates and in the manner stated in table 1, such that a homogeneous spray liquor was formed. Here, the active ingredients were employed as suspension concentrates. The adjuvant used was Agrotin® (Bayer CropScience).
Cotton seeds of the cultivar “Linda” were sown at a depth of 1 cm and cultivated in a climatized chamber (16 h of light, temperature during the day: 26° C., at night: 20° C.) until they had reached the 8-10 leaf stage.
The plants were treated on a laboratory spray track with spray liquors of thidiazuron and thidiazuron with combination partners. The water application rate for the spray application was 300 l/ha. After the treatment, the plants were returned to the climatized chamber.
1, 2 and 4 weeks after the application, the leaf drop effect was evaluated according to a scale from 0 to 100%: • 0%=no noticeable effect compared to untreated plants • 100%=all leaves have dropped. 2.2 Results for the Combinations of (A) TDZ with (B) Cyprosulfamide

[1] = Table 2, dose 200 g of a.i./ha, 0.2% by weight of Agrotin added
[2] = Table 2, dose 25 g of a.i./ha, 0.2% by weight of Agrotin added

## COc1ccccc1C(=O)NS(=O)(=O)c1ccc(C(=O)NC2CC2)cc1 [Cyprosulfamide, 4-cyclopropylaminocarbonyl-N-(2-methoxybenzoyl)benzenesulfonamide]
Table 1, dose 100 g of a.i./ha, 1 l of Agrotin added, scale 0-100%
  Leaf drop [%] 2 weeks after application: 7%
Table 1, dose 200 g of a.i./ha, 1 l of Agrotin added, scale 0-100%
  Leaf drop [%] 2 weeks after application: 0%
[1]
  Leaf drop [%] 1 week after application: 0%
  Leaf drop [%] 2 weeks after application: 0%
  Leaf drop [%] 4 weeks after application: 0%

## O=C(Nc1ccccc1)Nc1cnns1 [TDZ, thidiazuron]
Table 1, dose 35 g of a.i./ha, 1 l of Agrotin added, scale 0-100%
  Leaf drop [%] 2 weeks after application: 67%
[2]
  Leaf drop [%] 1 week after application: 37%
  Leaf drop [%] 2 weeks after application: 56%
  Leaf drop [%] 4 weeks after application: 63%
